First: CCOC(=O)CN1C(=O)C(N=[N+]=[N-])CCc2ccc(OC)cc21 (stereo not drawn)
Second: O=C(CCCl)N1CCc2ccc([N+](=O)[O-])cc21
The melting point of the first is lower: 90 to 91 °C for the first, 127 to 128 °C for the second.

First: CCN(CCC12CC3CC(CC(C3)C1)C2)C(=O)NCCCc1ccncc1
Second: CCCCCCCCCCCCc1ccc(S(=O)(=O)Nc2nnc(S(N)(=O)=O)s2)cc1
The melting point of the first is lower: 106 to 115 °C for the first, 249 to 250 °C for the second.

First: COc1cc(O)c(C(=O)C=Cc2ccc(SC)cc2)c(OC)c1
Second: COc1cc(/C=C/C(=O)CC(=O)CC(C)(C)C)ccc1O
The melting point of the first is higher: 135 °C for the first, 130 to 132 °C for the second.

`Cc1cc2c(cc1Sc1ccc(C(=O)O)cn1)C(C)(C)CCC2(C)C` and `CC(=O)C1=NN(c2ccc(C(=O)O)cc2C)C(=O)C1` cannot be ordered by melting point: 257 to 260 °C for the first, greater than 250 °C for the second.

First: Cc1nc2c3c(c(CCl)cn2c1C)CCC(c1ccccc1)C3 (stereo not drawn)
Second: Nc1nc(SCc2nc(C3CC3)no2)ncc1Cc1ccccc1
The melting point of the first is higher: 155 to 157 °C for the first, 94 °C for the second.

First: OC1CSC(Oc2ccc(-c3cccnc3F)nc2Cl)C(O)C1O (stereo not drawn)
Second: COc1ccc(-n2c3c(c(=O)c4cccnc42)CC(C)O3)cc1 (stereo not drawn)
The melting point of the first is lower: 153 °C for the first, 194 to 196 °C for the second.

Compared with `CN1CCC(c2c[nH]c3ccc(OS(=O)(=O)c4ccccc4)cc23)CC1`, `COc1cccc(S(=O)(=O)N2CCc3cc(OCc4ccccc4)c(OC)cc3C2=O)c1` is lower in melting point: 192 to 194 °C for the first, 140 to 145 °C for the second.

First: O=C(Nc1ccc(Cl)c(Cl)c1)OCCCC(O)c1ccccc1 (stereo not drawn)
Second: Clc1ccc(OCc2ccccc2)c(Br)c1
The melting point of the first is higher: 86 to 89 °C for the first, 49 to 50.5 °C for the second.

Compared with `O=C(O)C1=CSC2C(=Cc3nc4ncc5c(n4n3)CCC3(C5)OCCO3)C(=O)N12` (stereo not drawn), `O=C(Nc1noc2ccccc12)N1CCN(c2nc(-c3ccccn3)ns2)CC1` is lower in melting point: greater than 250 °C for the first, 222 to 223 °C for the second.

First: CNCCNc1noc2cc(OC)ccc12
Second: COc1ccc(-c2cc3cc(Cl)cc(Cl)c3o2)cc1
The melting point of the first is lower: 136 to 137 °C for the first, 172 to 174 °C for the second.

First: O=C1CCC(N2Cc3c(OCc4cn5cc(CN6CCOCC6)ccc5n4)cccc3C2=O)C(=O)N1 (stereo not drawn)
Second: CN(C)NC(=O)Nc1cccc2c1C(=O)c1c-2n[nH]c1-c1ccc(N2CCNCC2)cc1
The melting point of the first is lower: 155 to 157 °C for the first, 238 °C for the second.

First: CC(CO)(CO)NCc1c2ccc3ccccc3c2cc2ccsc12
Second: O=C(O)C(=O)c1ccc(OCCOc2cc3ccccc3cc2O)cc1
The melting point of the first is higher: 212 to 215 °C for the first, 191 to 192 °C for the second.

First: CCCCOC1OC(CO)C(O)C(O)C1(O)N(Cc1cccc(C)c1C)C(=O)N(CCCl)N=O (stereo not drawn)
Second: CCOC(=O)C1[C@@H]2[C@@H](O)[C@@H]3O[C@H](c4ccccc4)OC[C@H]3O[C@H]12 (stereo partly drawn)
The melting point of the first is lower: 90 to 92 °C for the first, 137 to 139 °C for the second.

Compared with `CC(C)c1ccc(S(=O)(=O)n2c(CCCC(=O)O)cc3cc(Cl)ccc32)cc1`, `CC(C(=O)O)c1ccc2c(c1)C(=O)Cc1c(Cl)cccc1S2` (stereo not drawn) is higher in melting point: 148 °C for the first, 163 to 164 °C for the second.

First: CC(C)CNC(=O)c1ccc(C(=O)O)cc1[N+](=O)[O-]
Second: CN(C)C(=O)COc1cc(Cl)ccc1C(=O)O
The melting point of the first is higher: 255 to 257 °C for the first, 141 to 142 °C for the second.

First: CCSc1cc(C)nc(SCC)c1NC(=O)CN1CCN(CCSc2nc3c(C)c(Cl)cc(C(C)C)c3o2)CC1
Second: O=C(CCCN1CCN(c2cc(-c3ccc(F)cc3)c3c(n2)CCC3)CC1)c1ccc(F)cc1
The melting point of the first is higher: 120 to 122 °C for the first, 115 to 116 °C for the second.

First: O=C(NC(=O)c1c(F)cccc1Cl)Nc1ccc(S(=O)C(F)(F)C(F)F)cc1F (stereo not drawn)
Second: C/C(=C\c1ccc(C(F)(F)F)cc1)C(=O)Nc1cc(Cl)ccc1C(=O)O
The melting point of the first is lower: 213 to 216 °C for the first, 228 to 229 °C for the second.

First: CCn1cc(C(=O)O)c(=O)c2cc(F)c(-n3cccc3)nc21
Second: Nc1c(F)c(N2CCNCC2)cc2c1c(=O)c(C(=O)O)cn2C1CC1
The melting point of the first is higher: 257 to 259 °C for the first, 214 to 216 °C for the second.

Compared with `CCCCC(C)C(=O)C=P(c1ccccc1)(c1ccccc1)c1ccccc1` (stereo not drawn), `O=C(Nc1ccccc1)O[C@H]1CSC(c2ccccc2)=N[C@@H]1c1ccccc1` (racemic) is higher in melting point: 107 to 109 °C for the first, 159 °C for the second.

First: CC1(C)[C@@H](CS(=O)(=O)c2ccc(S(C)(=O)=O)cc2)CC[C@@]1(C)NCC(=O)N1C[C@@H](F)C[C@H]1C#N
Second: CCn1c(=O)c2[nH]c(-c3ccc(S(=O)(=O)N4CCN(C)CC4)cc3)nc2n(CC)c1=O
The melting point of the first is lower: 163 to 166 °C for the first, 305 to 307 °C for the second.

Compared with `COC(=O)c1ccc2cc([C@H]3OC[C@@H](S[C@H](C)[C@](O)(Cn4cncn4)c4ccc(F)cc4F)CO3)ccc2c1`, `CN1C(=O)C(c2ccncc2)(c2cccc(-c3cc(F)ccc3F)c2)N=C1N` (stereo not drawn) is higher in melting point: 153 °C for the first, 200 to 202 °C for the second.

Compared with `CC(C)C1=C(Sc2ccccc2)C(c2ccc(F)cc2)=C(C(C)O)C(C(C)C)N1C` (stereo not drawn), `CCOC(=O)c1nc(-c2ccc(F)cc2)c(-c2ccc(=O)n(C(C)C)n2)s1` is higher in melting point: 125 to 128 °C for the first, 193 to 194 °C for the second.

`N#CC1(C#N)C2C=CC(C2)C1(Cl)C(F)(F)F` (stereo not drawn) and `N#Cc1nn(-c2c(Cl)cc(SC(F)(F)F)cc2Cl)c(N)c1I` cannot be ordered by melting point: 173 °C for the first, 172 to 174 °C for the second.

First: CC=CC=C1SC(=S)N(CC(=O)O)C1=O
Second: CC(C)C1NCC(=O)N1CC(N)=O (stereo not drawn)
The melting point of the first is higher: 216 to 218 °C for the first, 64 °C for the second.

Compared with `CCCS(=O)c1ccc(N)c([N+](=O)[O-])c1` (stereo not drawn), `Nc1cc(Cl)cc([N+](=O)[O-])c1C(=O)O` is higher in melting point: 109 to 112 °C for the first, 202 to 205 °C for the second.

First: CCCCCc1cnc(N2CCC(c3ccc(COc4ccc(C#N)c(F)c4)nc3)CC2)nc1
Second: CCCCCCC(C)(C)c1ccc(C2CC(=O)C=C(C)C2)c(OCc2ccccc2)c1 (stereo not drawn)
The melting point of the first is higher: 92 to 94 °C for the first, 60 to 61 °C for the second.

First: NCCON=C(CCCCCCNC(=NS(=O)(=O)c1ccc(Cl)cc1)N1CC(c2ccccc2)C(c2ccc(Cl)cc2)=N1)c1ccc(C(F)(F)F)cc1 (stereo not drawn)
Second: N#Cc1ccc(CNC(=O)C2Cc3ccccc3N2S(=O)(=O)c2ccc(-c3cccc(C(F)(F)F)c3)cc2)cc1 (stereo not drawn)
The melting point of the first is lower: 53 to 58 °C for the first, 80 to 89 °C for the second.

First: O=C1N(Cc2ccc(NC3CCNC3)cc2)c2ccccc2C12COc1cc3c(cc12)OCO3 (stereo not drawn)
Second: N#Cc1cc2c(cc1O)OCC21C(=O)N(Cc2ccccc2C(F)(F)F)c2ccccc21 (stereo not drawn)
The melting point of the first is lower: 118 to 121 °C for the first, 122 to 124 °C for the second.

First: OCC(COc1noc2ccc(Cl)cc12)NC(c1ccccc1)(c1ccccc1)c1ccccc1 (stereo not drawn)
Second: O=C(O)Cc1cc(OCc2ccccc2)ccc1OCc1ccccc1
The melting point of the first is higher: 142 to 144 °C for the first, 95.5 to 100 °C for the second.

Compared with `CC(C)c1nc(CCCl)n(C)c1Sc1cc(Cl)cc(Cl)c1`, `Cc1ccc2c(Cl)cc(Cl)c(OCC#N)c2n1` is higher in melting point: 101 to 102 °C for the first, 157 to 158 °C for the second.

First: CC#CCOc1ccc(S(=O)(=O)N(C)C(C(=O)NO)C(C)(C)SCCn2ccnc2)cc1 (stereo not drawn)
Second: CC(=NO)C1CC(Cn2ccnc2)(c2ccc(Cl)cc2)N(C)O1 (stereo not drawn)
The melting point of the first is lower: 97 to 100 °C for the first, 214 to 216 °C for the second.

Compared with `NC(=O)C1CN(Cc2ccccc2)CCN1` (stereo not drawn), `O=C1NCCn2c1nc1ccccc12` is higher in melting point: 168 °C for the first, greater than 250 °C for the second.

First: CCOC(=O)c1nc(SC)nc(OC)c1OCc1ccccc1
Second: CCOC(=O)c1cc(-c2ccccc2OC)[nH]c1N
The melting point of the first is lower: 48 to 49 °C for the first, 128 °C for the second.

Compared with `O=C(O)c1nc(C2CC2)[nH]c(=O)c1Cl`, `COC(=O)[C@H]1C[C@H](C(=O)O)Nc2cc(Br)cc(Br)c21` (relative stereo) is lower in melting point: 189 to 190 °C for the first, 171 to 173 °C for the second.

Going from `C=CCS(=O)(=O)c1ccc(N2CC=C(c3ccc(Cl)cc3)N2)cc1` to `Cc1ccc(S(=O)(=O)Cc2ccc(C(O)(C(F)(F)F)C(F)(F)F)cc2)cc1`, the melting point falls from 210 °C to 129 °C.

Compared with `c1cn(CCCCn2ccnc2)cn1`, `O=c1[nH]nc(-c2ccc(-n3ccnc3)cc2)c2cccnc12` is higher in melting point: 84 to 86 °C for the first, 359 to 361 °C for the second.

First: ClC(Cl)=CCOc1cc(Cl)c(OCCCOc2ccc(-c3nn[nH]n3)cc2)c(Cl)c1
Second: C[C@H](C(=O)O)c1ccc2cc(OCCCCCCc3ccc(O)c(O)c3)ccc2c1
The melting point of the first is higher: 159 to 161 °C for the first, 103 to 106 °C for the second.

Compared with `COc1cc(Cc2cnc(N)nc2N)cc2cccnc12`, `COc1cccc(Cc2cnc(NCCSCc3nccs3)[nH]c2=O)c1` is lower in melting point: 285 to 287 °C for the first, 104 to 106 °C for the second.

First: CCCCP(CCCC)(CCCC)=C1CC(=O)OC1=O
Second: COc1cccc([C@H]2O[C@H](CC(=O)Nc3cccc(CCC(=O)O)c3)C(=O)N(CC(C)(C)CO)c3ccc(Cl)cc32)c1OC
The melting point of the first is lower: 70 °C for the first, 141 to 144 °C for the second.

First: Cn1c2c(c3ccccc31)Cc1c(CO)c(CO)c(-c3ccc(Cl)cc3)n1C2
Second: COC(=O)Nc1cccc(C(=O)OC)c1NCc1ccc(-c2ccccc2C#N)cc1
The melting point of the first is higher: 238 to 239 °C for the first, 113 to 115 °C for the second.

First: CN(C)c1nc(-c2ccc3c(c2)OCO3)c2cc3c(cc2n1)OCO3
Second: Cc1cccc(-c2c(O)c3ccc(Cl)cc3[nH]c2=O)c1
The melting point of the first is lower: 200 to 206 °C for the first, greater than 350 °C for the second.

First: O=C(O)C(CCc1ccccc1)CC(CCc1ccccc1)C(=O)O (stereo not drawn)
Second: CC(=O)SC(C(C)=O)c1ccccc1 (stereo not drawn)
The melting point of the first is higher: 95 to 105 °C for the first, 31 to 32 °C for the second.

Compared with `CSc1ncncc1C(Cl)c1ccccc1F` (stereo not drawn), `CC(C)n1nc(-c2nc(C#Cc3ccccn3)c(N)nc2-c2ccccc2)ccc1=O` is higher in melting point: 144 to 145 °C for the first, 246 to 247 °C for the second.

First: COC1CC2CCC1C2Nc1ccc([N+](=O)[O-])c2onnc12 (stereo not drawn)
Second: CC(=O)c1ccc(OCc2cccc([N+](=O)[O-])c2)cc1O
The melting point of the first is higher: 178 to 180 °C for the first, 117 to 118 °C for the second.

Compared with `COC(=O)C(OC)c1nsc2ccc(-n3c(=O)cc(C(F)(F)F)n(C)c3=O)cc12` (stereo not drawn), `Cc1cc(Oc2c(Cl)cc(C(F)(F)F)cc2Cl)nn1C(=O)NC1CCCC1` is lower in melting point: 166 to 168 °C for the first, 90 to 92 °C for the second.

First: CC(C)(c1ccccc1)n1nnc(-c2ccccc2-c2ccc(C3OCCCO3)cc2)n1
Second: CCOP(=O)(/C=C/c1cn(-c2ccccc2)nc1OCc1ccc(OCc2nc(-c3ccc(C)c(C(=O)OC)c3)oc2C)c(OC)c1)OCC
The melting point of the first is lower: 102 to 106 °C for the first, 121 to 122 °C for the second.

First: CNC(=S)Nc1ccccc1N1CCCC1
Second: COC(=O)c1ccccc1S(=O)(=O)NC(=O)Nc1ncc(C)n(C)c1=O
The melting point of the first is lower: 125 to 126 °C for the first, 192 to 193 °C for the second.

First: CC(=O)NC1CCCC1CC(Cl)C#N (stereo not drawn)
Second: Cc1ccc(Sc2cncc3sc(C=NOCC(=O)O)cc23)cc1
The melting point of the first is lower: 114 to 117 °C for the first, 227 to 230 °C for the second.

First: CN(c1cccc2cc(-c3nccs3)[nH]c12)S(=O)(=O)c1cccs1
Second: CC1(C)CCc2c(ccc3c2C(=O)C(Br)=C(O)C3=O)O1
The melting point of the first is lower: 201 to 202 °C for the first, 213 to 216 °C for the second.

From a melting point compilation (Tetko et al.; mined from patent text by program, amines drawn as free bases though some values may be those of a salt)
